# Results from patent publication US6225063A, “RNA channels in biological membranes” (University Technology Corporation, priority 1999, dated 2001).
# Test system: 11th -round pool RNA
# Assay: RNA-liposome binding in the presence of a potential competitor (SEPHACRYL S-1000 gel filtration)
# Conditions: 5 mM competitor; 11th-round pool RNA incubated with liposomes
smiles,measurement,value
NCCO [ethanolamine],RNA binding to phosphatidylcholine liposomes in the presence of competitor,did not interfere with binding
